These results are taken from ChEMBL document CHEMBL1132960, “Consensus bioactive conformation of cyclic GnRH antagonists defined by NMR and molecular modeling” (J Med Chem, 2000).

Molecules are shown by their SMILES. Where a SMILES comes first, the peptide text is derived from it. Bridges are numbered along the chain shown (N, C = ends). [ ]: non-standard residue; d: D form. dPhe(4-Cl) = N[C@H](Cc1ccc(Cl)cc1)C(=O)O; d2Nal = N[C@H](Cc1ccc2ccccc2c1)C(=O)O; d3Pal = N[C@H](Cc1cccnc1)C(=O)O; NMeL = CN[C@@H](CC(C)C)C(=O)O; ΔPro = O=C(O)[C@@H]1C=CCN1; Dab = NCC[C@H](N)C(=O)O; Dap = NC[C@H](N)C(=O)O; βAla = NCCC(=O)O

A word on the Ki: it is the equilibrium dissociation constant of an inhibitor or competing ligand from its target. Low readings indicate tighter binding, high ones weaker binding.

Test [1] is filed under the species Rattus norvegicus. The test can be described thus: Number of rats ovulating over total at a dose of 2.5 ug/rat (2/8). The class given is functional.
For test [2], the species on record is Rattus norvegicus. Briefly: Number of rats ovulating over total at a dose of 5 ug/rat (2/8). The class given is functional.
The species named for test [3] is Rattus norvegicus. The test can be described thus: Number of rats ovulating over total at a dose of 10 ug/rat (2/20). The class given is functional.
For test [4], the target named is T1, Gonadotropin-releasing hormone receptor (Homo sapiens, UniProt P30968).
T1 sequence (P30968 whole entry): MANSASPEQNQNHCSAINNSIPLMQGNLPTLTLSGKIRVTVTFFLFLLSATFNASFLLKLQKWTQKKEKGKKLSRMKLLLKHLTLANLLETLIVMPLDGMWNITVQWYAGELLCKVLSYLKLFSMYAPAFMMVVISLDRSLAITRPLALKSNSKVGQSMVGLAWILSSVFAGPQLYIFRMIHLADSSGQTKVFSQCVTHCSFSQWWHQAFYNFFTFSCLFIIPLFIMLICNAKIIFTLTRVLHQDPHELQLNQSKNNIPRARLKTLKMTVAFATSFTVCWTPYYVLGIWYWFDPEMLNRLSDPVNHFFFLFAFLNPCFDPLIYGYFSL
The test can be described thus: Binding affinity towards Gonadotropin-releasing hormone receptor.

The species named for test [5] is Rattus norvegicus. Briefly: Number of rats ovulating over total at a dose of 1000 ug/rat (5/8). The class given is functional.
For test [6], the species on record is Rattus norvegicus. The test can be described thus: Number of rats ovulating over total at a dose of 5 ug/rat (3/20). The class given is functional.

`CC(=O)N[C@H]1CCC(=O)NCC(=O)NCC[C@@H]2NC(=O)[C@H](CC(=O)NC[C@@H](C(N)=O)NC(=O)[C@@H]3CCCN3C(=O)[C@H](CCCN=C(N)N)NC(=O)[C@H](CC(C)C)NC(=O)[C@@H](Cc3ccc4ccccc4c3)NC2=O)NC(=O)[C@@H](Cc2c[nH]c3ccccc23)NC(=O)[C@@H](Cc2ccc(Cl)cc2)NC1=O`: the No. of rats in the test listed under Rattus norvegicus [1] amounted to 2.
In turn, `CC(=O)N[C@H](Cc1ccc2ccccc2c1)C(=O)N[C@H](Cc1ccc(Cl)cc1)C(=O)N[C@H](Cc1cccnc1)C(=O)N[C@H]1CC(=O)NC[C@@H](C(N)=O)NC(=O)[C@@H]2CCCN2C(=O)[C@@H]2CCNC(=O)CNC(=O)CC[C@H](NC1=O)C(=O)N[C@H](CCCN=C(N)N)C(=O)N[C@@H](CC(C)C)C(=O)N2` (Ac-[d2Nal][dPhe(4-Cl)][d3Pal]DE[dR]L[Dab]P[Dap]-NH2; lactam 4-10; linker 5-8 via G) [listing 1 of 2 here] came in with a No. of rats in the test listed under Rattus norvegicus [2] of 2.
`CC(=O)N1CC=C[C@H]1C(=O)N[C@H](Cc1ccc(F)cc1)C(=O)N[C@H](Cc1c[nH]c2ccccc12)C(=O)N[C@H]1CC(=O)NC[C@@H](C(N)=O)NC(=O)[C@@H]2CCCN2C(=O)[C@H](CCCN=C(N)N)NC(=O)[C@H](CC(C)C)NC(=O)[C@@H](Cc2ccc3ccccc3c2)NC(=O)[C@H](Cc2ccc(O)cc2)NC1=O` returned a No. of rats in the test filed under Rattus norvegicus [3] of 2.
As to `CC(=O)N[C@H](Cc1ccc2ccccc2c1)C(=O)N[C@H](Cc1ccc(Cl)cc1)C(=O)N[C@H](Cc1cccnc1)C(=O)N[C@H]1CC(=O)NC[C@@H](C(N)=O)NC(=O)[C@@H]2CCCN2C(=O)[C@@H]2CCNC(=O)CNC(=O)CC[C@H](NC1=O)C(=O)N[C@H](CCCN=C(N)N)C(=O)N[C@@H](CC(C)C)C(=O)N2` (Ac-[d2Nal][dPhe(4-Cl)][d3Pal]DE[dR]L[Dab]P[Dap]-NH2; lactam 4-10; linker 5-8 via G) [listing 2 of 2 here], in test [4], affinity was put at a Ki of 0.14 nM.
Molecule `CC(C)C[C@H]1C(=O)N[C@@H](CCCN=C(N)N)C(=O)N2CCC[C@H]2C(=O)NCCC(=O)N2CC=C[C@H]2C(=O)N[C@H](Cc2ccc(Cl)cc2)C(=O)N[C@H](Cc2c[nH]c3ccccc23)C(=O)N[C@@H](CO)C(=O)N[C@@H](Cc2ccc(O)cc2)C(=O)N[C@H](Cc2c[nH]c3ccccc23)C(=O)N1C` (cyclo([NMeL]RP[βAla][ΔPro][dPhe(4-Cl)][dW]SY[dW])) had a No. of rats in the test filed under Rattus norvegicus [5] of 5.
In test [4], `CC(=O)N[C@H](Cc1ccc2ccccc2c1)C(=O)N[C@H](Cc1ccc(Cl)cc1)C(=O)N[C@H](Cc1c[nH]c2ccccc12)C(=O)N[C@H]1CC(=O)NC[C@@H](C(N)=O)NC(=O)[C@@H]2CCCN2C(=O)[C@@H]2CCCCNC(=O)CC[C@H](NC1=O)C(=O)N[C@H](CCCN=C(N)N)C(=O)N[C@@H](CC(C)C)C(=O)N2` (Ac-[d2Nal][dPhe(4-Cl)][dW]DE[dR]LKP[Dap]-NH2; lactam 4-10, 5-8) [listing 1 of 2 here] gave an inhibition constant Ki of 0.32 nM.
With `CC(=O)N[C@H](Cc1ccc2ccccc2c1)C(=O)N[C@H](Cc1ccc(Cl)cc1)C(=O)N[C@H](Cc1c[nH]c2ccccc12)C(=O)N[C@H]1CC(=O)NC[C@@H](C(N)=O)NC(=O)[C@@H]2CCCN2C(=O)[C@@H]2CCCCNC(=O)CC[C@H](NC1=O)C(=O)N[C@H](CCCN=C(N)N)C(=O)N[C@@H](CC(C)C)C(=O)N2` (Ac-[d2Nal][dPhe(4-Cl)][dW]DE[dR]LKP[Dap]-NH2; lactam 4-10, 5-8) [listing 2 of 2 here], in the test listed under Rattus norvegicus [6], the No. of rats amounted to 3.
